Tests used:
mice fed with high fat = experiment: Storage of visceral and subcutaneous adipose of mice fed with high fat; type: in vivo; conditions: for Weight: body weight after 20 weeks
Method: • 1) The obese mice fed with high fat are subjected to drug administration by intravenous injection for 20 weeks according to experimental steps in embodiment 2; • 2) the mice in the various groups are not fed with food for 12 hours, and are weighed accurately after being anaesthetized with 3% pentobarbital sodium at 45 mg/kg by intraperitoneal injection; • 3) the mice are conventionally sterilized and subjected to laparotomy, kidney surrounding adipose tissues, mesenterium surrounding adipose tissues, epididymis surrounding adipose tissues and abdominal subcutaneous adipose tissues are rapidly picked to weigh wet weight (wherein the range of the abdominal subcutaneous adipose tissues is as follows: the abdomen below an costal arch and above a groin, and a midaxillary line is taken as a boundary for two sides); • 4) the weight is calculated according to the following formula: wet weight of abdominal adipose; adipose pad total weight (g)=the kidney surrounding adipose tissues+the epididymis surrounding adipose tissues; and body adipose content=the adipose pad total weight (g)/body weight (g). • 5) The obtained data is subjected to statistical treatment.

[1] = system: mice fed with high-fat diet; experiment: Weight of mice fed with high-fat diet during drug administration; type: in vivo; conditions: tail vein injection daily, 12 weeks after drug administration onward, FIG. 5
From the text: Experimental animals: male mice at the age of 6 weeks and feed were provided by the Experimental Animal Center of Nanjing Medical University, license number: SCXK (Su) 2011-0003. The animals are fed in different cages randomly, and drink water freely.
Experimental drugs: normal diet control group (blank control group); and high-fat diet groups are divided into a normal saline group (model control group), a nano-bubble group, a nano-bubble-curcumin group, a polypeptide nano-bubble group (prepared by step 3) in embodiment 1), a curcumin group and a polypeptide nano-bubble-curcumin group (prepared by step 4) in embodiment 1). […]

[2] = high-fat diet mice, 20 weeks, n = 10
[3] = high-fat diet mice, tail vein injection 20 weeks, curcumin 75 mg/kg or nano-bubbles 40 μg/mice/time, n = 10, wet weight

COc1cc(/C=C/C(=O)CC(=O)/C=C/c2ccc(O)c(OC)c2)ccc1O [Curcumin, curcumin]
Wet weight of the visceral adipose tissues compared with the model control group (mice fed with high fat; Table 6): reduced obviously | Total weight of visceral adipose tissues (mice fed with high fat; Table 6, high-fat diet mice, tail vein injection 20 weeks, n = 10): 8.03 ± 0.02 g | Body fat mass index compared with the model control group (mice fed with high fat; Table 7): obviously reduced | Weight (mice fed with high fat; Table 7, high-fat diet mice, n = 10): 34.92 ± 0.96 g | Weight (mice fed with high fat; Table 8, high-fat diet mice, n = 10): 35.72 ± 0.75 g | VAT (total weight of visceral adipose tissues) (mice fed with high fat; Table 8, high-fat diet mice, 20 weeks, n = 10): 7.24 ± 0.02 g | Body fat mass index (mice fed with high fat; fat pad total weight (g)/weight (g), high-fat diet mice, 20 weeks, n = 10): 6.38 ± 0.21 % | SCAT (subcutaneous adipose tissue total weight) (mice fed with high fat; [2]): 3.01 ± 0.05 g | SCAT/weight (mice fed with high fat; [2]): 7.02 ± 0.38 | VAT/SCAT (mice fed with high fat; [2]): 1.78 ± 0.09 | Amount of visceral adipose tissues: Epididymis surrounding (mice fed with high fat; [3]): 1.21 ± 0.18 g | Amount of visceral adipose tissues: Kidney surrounding (mice fed with high fat; [3]): 0.72 ± 0.05 g | Amount of visceral adipose tissues: Omentum and mesenterium surrounding (mice fed with high fat; [3]): 0.59 ± 0.02 g | Fat pad total weight (mice fed with high fat; kidney surrounding + epididymis surrounding adipose tissues, high-fat diet mice, 20 weeks, n = 10): 2.34 ± 0.10 g | Weight of the subcutaneous adipose compared with the model group (mice fed with high fat; text on Table 8): remarkably reduced | Increasing of the weight of the mice compared with the model control group [1]: obviously inhibited
